Test system: leukocyte migration (chemotaxis) stimulated by f-MLP
Experiment: leukocyte chemotaxis assay: leukocyte migration stimulated by f-MLP
Settings: concentration not given

## cyclosporin H
  activity in studies involving leukocyte chemotaxis induced by f-MLP (result in words): functionally active
Listed as purified cyclosporin H
  activity in studies involving leukocyte chemotaxis induced by f-MLP (result in words): active

— patent publication US20120253007A1 (The Government of the United States of America, as …, priority 2011, published 2012)
